Results as given in patent US12558428B2, “Heterobifunctional compounds and their use in treating disease” (Halda Therapeutics OpCo, Inc., priority 2024, dated 2026).

Legend:
CDK1 = biological target: T1, CDK1 (Homo sapiens, UniProt P06493); experiment: Binding affinity to CDK1 (KdELECT assay)
T1 construct: made in house; host or cells: T7 phage in E. coli BL21-derived host, or HEK-293 cells
Protocol: Exemplary compounds were tested for ability to bind to CDK1.
Compounds were tested using a KdELECT assay. Kinase-tagged T7 phage strains were prepared in an E. coli host derived from the BL21 strain. E. coli were grown to log-phase and infected with T7 phage and incubated with shaking at 32° C. until lysis. The lysates were centrifuged and filtered to remove cell debris. The remaining kinases were produced in HEK-293 cells and subsequently tagged with DNA for qPCR detection. Streptavidin-coated magnetic beads were treated with biotinylated small molecule ligands for 30 minutes at room temperature to generate affinity resins for kinase assays. The liganded beads were blocked with excess biotin and washed with blocking buffer (SeaBlock (Pierce), 1% BSA, 0.05% Tween 20, 1 mM DTT) to remove unbound ligand and to reduce non-specific binding. Binding reactions were assembled by combining kinases, liganded affinity beads, and test compounds in 1× binding buffer (20% SeaBlock, 0.17×PBS, 0.05% Tween 20, 6 mM DTT). Test compounds were prepared as 11 IX stocks in 100% DMSO. Kd values were determined using an 11-point 3-fold compound dilution series with three DMSO control points. All compounds for Kd measurements are distributed by acoustic transfer (non-contact dispensing) in 100% DMSO. […] The kinase concentration in the eluates was measured by qPCR.

[1] = tested on: T-Rex 293 cells having increased expression of estrogen receptor alpha protein; experiment: Cellular growth inhibition assay, T-Rex 293 cells, (+) doxycycline; format: cell-based; details: T-REx-293, 72 h, Table 7-B; T-Rex 293 cells with doxycycline (increased ERα expression); 72 hours; CellTiter-Glo; read-out: (+) Dox GI50
Summary of the method: (§1)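 Viability read-out was CellTiter-Glo 2.0 luminescence after 72 h compound exposure, normalized to zero luminescence and fitted by four-parameter regression to give GI50. Cells were an ERα-inducible T-Rex 293 clone cultured with or without 3 ng/mL doxycycline in charcoal-stripped, phenol red-free medium.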

[2] = tested on: MCF7 cells (ECACC #86012803); experiment: Cellular growth inhibition assay, MCF7 cells purchased from ECACC; format: cell-based; details: Homo sapiens, 144 h; MCF7 cells purchased from ECACC (#86012803); six days treatment; CellTiter-Glo 2.0 viability
Protocol: Exemplary compounds were tested for the ability to inhibit the proliferation of MCF7 cells.
MCF7 cells (ATCC #HTB-22 or ECACC #86012803) were cultured in RPMI 1640 medium supplemented with 10% heat-inactivated fetal bovine serum, 1% pen-strep, and 0.2 U/ml insulin. Cells were seeded in 25 μL of RPMI 1640 medium supplemented with 10% heat-inactivated fetal bovine serum, 1% pen-strep, 0.2 U/ml insulin in poly-D-lysine treated, black clear-bottom 384-well plates at 225 cells/well for MCF7 cells purchased from ECACC or 1,500 cells/well for MCF7 cells purchased from ATCC. Following seeding, plates were spun at 300×g for 30 seconds and cultured at 37° C. with 5% CO2 in a humidified tissue culture incubator.
At 24 hours after seeding, compounds were titrated in 100% DMSO and diluted in RPMI 1640 medium supplemented with 10% heat-inactivate fetal bovine serum, 1% pen-strep, and 0.2 U/ml insulin. A 25 μL aliquot of the compound/media mixture was added to cells, bringing the total volume in each well to 50 μL. An equal volume of DMSO without compound was used as a negative control. After treatment, plates were spun at 300×g for 30 seconds, then cultured at 37° C. with 5% CO2 for six days in a humidified tissue culture incubator.
On Day 6 of treatment, cell viability was quantified with CellTiter-Glo 2.0 reagent (Promega). Plates were equilibrated to room temperature for 30 minutes, then 25 μL of CellTiter-Glo 2.0 reagent was added to cells, bringing the total volume in each well to 75 μL. After reagent was added, plates were mixed on a shaker for two minutes at 500 rpm and then incubated at room temperature for 10 minutes. Following incubation, plates were spun at 3,000×g for 30 seconds, sealed with an optical adhesive cover, and luminescence readings were measured with an EnVision Plate Reader.
Data was normalized to 0 luminescence for baseline. A four-parameter, non-linear regression curve fit was applied to dose-response data in GraphPad Prism data analysis software to determine the half maximal growth inhibitory concentration (GI50) for each compound.

[3] = tested on: T-Rex 293 cells lacking increased expression of estrogen receptor alpha protein; experiment: Cellular growth inhibition assay, T-Rex 293 cells, (−) doxycycline; format: cell-based; details: T-REx-293, 72 h, Table 7-B; T-Rex 293 cells without doxycycline (lacking increased ERα expression); 72 hours; CellTiter-Glo; read-out: (−) Dox GI50
Summary of the method: as §1

T1 sequence (P06493 whole entry): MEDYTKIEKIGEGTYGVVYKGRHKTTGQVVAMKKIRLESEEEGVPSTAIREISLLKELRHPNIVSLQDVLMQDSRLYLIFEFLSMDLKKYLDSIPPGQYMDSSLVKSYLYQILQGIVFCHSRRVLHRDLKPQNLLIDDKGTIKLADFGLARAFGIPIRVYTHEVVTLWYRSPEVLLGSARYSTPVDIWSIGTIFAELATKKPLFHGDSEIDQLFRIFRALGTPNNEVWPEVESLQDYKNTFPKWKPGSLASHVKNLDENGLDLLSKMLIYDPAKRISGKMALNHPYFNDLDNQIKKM

SMILES | Kd (CDK1) | GI50 [1] | GI50 [2] | GI50 [3]
CCN(CCOCCOCCNS(=O)(=O)c1ccc(Nc2ncc(Br)c(Nc3cccc(F)c3C(N)=O)n2)cc1)CCOc1ccc(C(=O)c2c(-c3ccc(O)cc3)sc3cc(O)ccc23)cc1 [I-40] | 50 to 500 nM |  |  | 
CCN(CCOCCOCCOCCOCCOCCOCCNS(=O)(=O)c1ccc(Nc2ncc(Br)c(Nc3cccc(F)c3C(N)=O)n2)cc1)CCOc1ccc(C(=O)c2c(-c3ccc(O)cc3)sc3cc(O)ccc23)cc1 [I-42] | 50 to 500 nM |  |  | 
COc1cc(N2CCN(CC3(O)CCN(c4ccc(C5=N[C@@H](C)c6nnc(C)n6-c6sc(C)c(C)c65)cc4)CC3)CC2)ccc1[C@H]1c2ccc(O)cc2CC[C@H]1c1ccc(C(F)(F)F)cc1 [III-348] |  | 500 to 2500 nM | 500 to 2500 nM | 500 to 2500 nM
COc1cc(N2CCN(CC3(O)CCN(c4ccc(C5=N[C@@H](C)c6nnc(C)n6-c6sc(C)c(C)c65)cc4)CC3)CC2)ccc1[C@@H]1c2ccc(O)cc2CC[C@@H]1c1ccc(C(F)(F)F)cc1 [III-349] |  | < 50 nM | < 50 nM | 500 to 2500 nM
COc1cc(N2CCN(CC3CCN(c4ccc(C5=N[C@@H](C)c6nnc(C)n6-c6sc(C)c(C)c65)c(F)c4)CC3)CC2)ccc1[C@H]1c2ccc(O)cc2CC[C@H]1c1ccc(C(F)(F)F)cc1 [III-350] |  | > 2500 nM | 50 to 500 nM | > 2500 nM
COc1cc(N2CCN(CC3CCN(c4ccc(C5=N[C@@H](C)c6nnc(C)n6-c6sc(C)c(C)c65)c(F)c4)CC3)CC2)ccc1[C@@H]1c2ccc(O)cc2CC[C@@H]1c1ccc(C(F)(F)F)cc1 [III-351] |  | < 50 nM | < 50 nM | > 2500 nM
COc1cc(N2CCC(O)(CN3CCN(c4ccc([C@H]5c6ccc(O)cc6CC[C@@H]5c5ccc(F)cc5)cc4F)CC3)CC2)ccc1C1=N[C@@H](C)c2nnc(C)n2-c2sc(C)c(C)c21 [III-352] |  | < 50 nM | < 50 nM | 500 to 2500 nM
COc1cc(N2CCC(O)(CN3CCN(c4ccc([C@H]5c6ccc(O)cc6CC[C@H]5c5ccc(F)cc5)cc4F)CC3)CC2)ccc1C1=N[C@@H](C)c2nnc(C)n2-c2sc(C)c(C)c21 [III-353] |  | 50 to 500 nM | 50 to 500 nM | 500 to 2500 nM
COc1cc(N2CCN(CC3(O)CCN(c4ccc(C5=N[C@@H](C)c6nnc(C)n6-c6sc(C)c(C)c65)c(F)c4)CC3)CC2)ccc1[C@H]1c2ccc(O)cc2CC[C@H]1c1ccc(C(F)(F)F)cc1 [III-354] |  | 50 to 500 nM | 50 to 500 nM | 500 to 2500 nM
COc1cc(N2CCN(CC3(O)CCN(c4ccc(C5=N[C@@H](C)c6nnc(C)n6-c6sc(C)c(C)c65)c(F)c4)CC3)CC2)ccc1[C@@H]1c2ccc(O)cc2CC[C@@H]1c1ccc(C(F)(F)F)cc1 [III-355] |  | < 50 nM | < 50 nM | 500 to 2500 nM
COc1cc(N2CCC(O)(CN3CCN(c4cc(F)c([C@@H]5c6ccc(O)cc6CC[C@@H]5c5ccccc5)cc4F)CC3)CC2)ccc1C1=N[C@@H](C)c2nnc(C)n2-c2sc(C)c(C)c21 [III-356] |  | < 50 nM | 50 to 500 nM | 500 to 2500 nM
COc1cc(N2CCC(O)(CN3CCN(c4cc(F)c([C@H]5c6ccc(O)cc6CC[C@H]5c5ccccc5)cc4F)CC3)CC2)ccc1C1=N[C@@H](C)c2nnc(C)n2-c2sc(C)c(C)c21 [III-357] |  | 50 to 500 nM | 50 to 500 nM | 500 to 2500 nM
COc1cc(N2CCC(O)(CN3CCN(c4cc(F)c([C@@H]5c6ccc(O)cc6CC[C@@H]5c5ccc(F)cc5)c(F)c4)CC3)CC2)ccc1C1=N[C@@H](C)c2nnc(C)n2-c2sc(C)c(C)c21 [III-358] |  | < 50 nM | < 50 nM | 500 to 2500 nM
COc1cc(N2CCC(O)(CN3CCC(c4cc(F)c([C@H]5c6ccc(O)cc6CC[C@H]5c5ccc(F)cc5)c(F)c4)CC3)CC2)ccc1C1=N[C@@H](C)c2nnc(C)n2-c2sc(C)c(C)c21 [III-359] |  | 50 to 500 nM | 50 to 500 nM | 500 to 2500 nM
COc1cc(N2CCN(CC3(O)CCN(c4ccc(C5=N[C@@H](C)c6nnc(C)n6-c6sc(C)c(C)c65)cc4)CC3)CC2)ccc1C1=C(c2ccccc2)CCCc2cc(C(=O)O)ccc21 [IV-66] |  | < 50 nM | < 50 nM | 500 to 2500 nM
Cc1sc2c(c1C)C(c1ccc(N3CCC(O)(CN4CCN(c5cc(F)c(C6=C(c7ccccc7)CCCc7cc(C(=O)O)ccc76)cc5F)CC4)CC3)cc1)=N[C@@H](C)c1nnc(C)n1-2 [IV-67] |  | < 50 nM | < 50 nM | 500 to 2500 nM
COc1cc(N2CCN(CC3(O)CCN(c4ccc(C5=N[C@@H](C)c6nnc(C)n6-c6sc(C)c(C)c65)cc4)CC3)CC2)c(F)cc1C1=C(c2ccccc2F)CCCc2cc(C(=O)O)ccc21 [IV-68] |  | < 50 nM | < 50 nM | 500 to 2500 nM
Cc1sc2c(c1C)C(c1ccc(N3CCC(O)(CN4CCN(c5cc(F)c(C6=C(c7ccccc7)CCCc7cc(C(=O)O)ccc76)c(F)c5)CC4)CC3)cc1)=N[C@@H](C)c1nnc(C)n1-2 [IV-69] |  | < 50 nM | < 50 nM | 500 to 2500 nM
Cc1sc2c(c1C)C(c1ccc(N3CC(CN4CCN(CC5CN(c6cc(F)c(C7=C(c8ccccc8)CCCc8cc(C(=O)O)ccc87)cc6F)C5)CC4)C3)cc1)=N[C@@H](C)c1nnc(C)n1-2 [IV-70] |  | < 50 nM | < 50 nM | 500 to 2500 nM
COc1cc(C2CCN(CC3CCC4(CC3)CN(c3ccc(C5=N[C@@H](C)c6nnc(C)n6-c6sc(C)c(C)c65)cc3)C4)CC2)ccc1C1=C(c2ccccc2Cl)CCCc2cc(C(=O)O)ccc21 [IV-71] |  | < 50 nM | < 50 nM | 500 to 2500 nM
Cc1sc2c(c1C)C(c1ccc(N3CC4(CC(CN5CCN(c6cc(F)c(C7=C(c8ccccc8F)CCCc8cc(C(=O)O)ccc87)cc6F)CC5)C4)C3)cc1)=N[C@@H](C)c1nnc(C)n1-2 [IV-72] |  | < 50 nM | < 50 nM | 500 to 2500 nM
